We go through 27 compounds from patent US11267824B2, “Inhibitors of indoleamine 2,3-dioxygenase and/or tryptophan 2,3-dioxygenase” (IDORSIA PHARMACEUTICALS LTD, priority 2017, dated 2022).

Assay [1] deals with Recombinant full-length human IDO1 (Homo sapiens (Human), UniProt P14902). Description: IDO1 enzymatic assay (IDO inhibitory activity). The class given is biochemical. The note with it: 2 nM enzyme, 5 μM L-tryptophan, pH6.5, 30 min pre-incubation, NFK quantified by LCMS; mean values if measured multiple times; read-out: hIDO activity (IC50 in nM). The procedure, abridged: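 N-His-tagged enzyme from E. coli at 2 nM in 37.5 mM phosphate pH6.5 with ascorbate, methylene blue, catalase; compounds 10 μM–0.5 nM, 0.6% DMSO, pre-incubated 30 min RT, then 5 μM L-tryptophan for 30 min RT. NFK quantified by LCMS against d5-tryptophan; IC50 from duplicate four-parameter fit, means where repeated.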
Chain of Recombinant full-length human IDO1 (P14902 whole entry): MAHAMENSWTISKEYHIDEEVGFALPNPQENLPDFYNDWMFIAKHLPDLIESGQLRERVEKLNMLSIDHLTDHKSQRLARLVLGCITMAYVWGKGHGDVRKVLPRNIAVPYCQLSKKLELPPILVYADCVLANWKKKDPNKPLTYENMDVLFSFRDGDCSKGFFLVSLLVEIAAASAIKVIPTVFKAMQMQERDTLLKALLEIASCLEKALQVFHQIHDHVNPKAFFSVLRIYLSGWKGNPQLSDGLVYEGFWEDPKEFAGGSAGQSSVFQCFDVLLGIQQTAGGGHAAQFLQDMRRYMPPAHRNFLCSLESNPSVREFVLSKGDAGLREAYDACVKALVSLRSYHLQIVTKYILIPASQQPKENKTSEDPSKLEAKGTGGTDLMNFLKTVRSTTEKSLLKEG

Assay [2] has as its target Recombinant human TDO comprising amino acids 19-407 (Homo sapiens (Human), UniProt P48775). The experiment in a line: TDO2 enzymatic assay (TDO inhibitory activity). Type of assay: biochemical. Conditions: 15 nM enzyme, 200 μM L-tryptophan, pH7, 30 min pre-incubation, NFK quantified by LCMS; mean values if measured multiple times; read-out: hTDO activity (IC50 in nM). The procedure, abridged: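 His-tagged enzyme (15 nM, E. coli-expressed) in pH 7 phosphate buffer with ascorbate, catalase, BSA, Tween 20, 0.6% DMSO; 30 min RT pre-incubation with compound (10 μM–0.5 nM), then 200 μM L-tryptophan for 30 min RT. N′-formylkynurenine quantified by LCMS against deuterated tryptophan; IC50 by four-parameter fit, duplicates.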

SMILES strings stand for the structures.

Chain of Recombinant human TDO comprising amino acids 19-407 (P48775 19-406 limits assumed): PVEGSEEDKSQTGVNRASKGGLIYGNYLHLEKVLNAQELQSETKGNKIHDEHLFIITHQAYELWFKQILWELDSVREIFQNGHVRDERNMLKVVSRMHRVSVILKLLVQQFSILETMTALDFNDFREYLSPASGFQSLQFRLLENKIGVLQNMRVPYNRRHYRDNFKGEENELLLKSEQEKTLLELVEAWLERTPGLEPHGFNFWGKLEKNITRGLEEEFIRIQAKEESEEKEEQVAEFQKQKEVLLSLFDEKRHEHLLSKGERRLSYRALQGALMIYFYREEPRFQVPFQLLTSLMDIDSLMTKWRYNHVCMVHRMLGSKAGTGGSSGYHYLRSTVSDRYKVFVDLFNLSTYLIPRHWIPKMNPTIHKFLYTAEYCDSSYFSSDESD

In the case of `OC(CC1CC2CCC1O2)c1c(C2CC2)sc2cncn12` (stereo not drawn) [Example 41, 1-(2-Cyclopropyl-imidazo[5,1-b]thiazol-3-yl)-2-(7-oxa-bicyclo[2.2.1]hept-2-yl)-ethanol], the IC50 in assay [1] turned out to be 93.4 nM; in assay [2], 2340 nM.
In the same order, the values of `CC1(C)CCC(C(O)c2c(C3CC3)sc3cncn23)C1` (stereo not drawn) [Example 47, (2-Cyclopropyl-imidazo[5,1-b]thiazol-3-yl)-(3,3-dimethyl-cyclopentyl)-methanol] are 18.8 nM and 287 nM.
The corresponding values for `CC1(C)CC[C@@H]([C@H](O)c2c(C3CC3)sc3cncn23)C1` [Example 47a, (S)-(2-Cyclopropyl-imidazo[5,1-b]thiazol-3-yl)-((R)-3,3-dimethyl-cyclopentyl)-methanol] are 15 nM and 328 nM.
The corresponding values for `CC1(C)CC[C@H]([C@H](O)c2c(C3CC3)sc3cncn23)C1` [Example 47b, (S)-(2-Cyclopropyl-imidazo[5,1-b]thiazol-3-yl)-((S)-3,3-dimethyl-cyclopentyl)-methanol] are 5.99 nM and 190 nM.
As for `CC1CCCC1C(O)c1c(C2CC2)sc2cncn12` (stereo not drawn) [Example 48, (2-Cyclopropyl-imidazo[5,1-b]thiazol-3-yl)-(2-methyl-cyclopentyl)-methanol], the concentration for half-maximal inhibition (IC50) in assay [1] is 8.4 nM; in assay [2], 70.6 nM.
In the same order, the values of `CC1([C@H](O)c2c(C3CC3)sc3cncn23)CCCC1` [Example 48a, (S)-(2-Cyclopropyl-imidazo[5,1-b]thiazol-3-yl)-(1-methyl-cyclopentyl)-methanol] are 4.37 nM and 42.5 nM.
In the same order, the values of `O[C@@H](c1ccccc1)c1c(C2CC2)sc2cncn12` [Example 50a, (S)-(2-Cyclopropyl-imidazo[5,1-b]thiazol-3-yl)-phenyl-methanol] are 20 nM and 494 nM.
`O[C@H](c1c(C(F)(F)F)sc2cncn12)C1CCCCC1` [Example 63a, (S)-Cyclohexyl-(2-trifluoromethyl-imidazo[5,1-b]thiazol-3-yl)-methanol]: the half-inhibitory concentration (IC50) was determined as 20.9 nM in assay [1] and 341 nM in assay [2].
Turning to `CC(CC(O)c1c(C2CC2)sc2cncn12)C1CCCCC1` (stereo not drawn) [Example 65, 3-Cyclohexyl-1-(2-cyclopropyl-imidazo[5,1-b]thiazol-3-yl)-butan-1-ol], the figures for the half-maximal inhibitory concentration (IC50) in assay [1] and in assay [2] were 124 nM and 931 nM, respectively.
For the compound `CCC(C1CCCCC1)C(O)c1c(C2CC2)sc2cncn12` (stereo not drawn) [Example 66, 2-Cyclohexyl-1-(2-cyclopropyl-imidazo[5,1-b]thiazol-3-yl)-butan-1-ol], the values for the half-maximal inhibitory concentration (IC50) in assay [1] and in assay [2] were 1570 nM and above 10200 nM, respectively.
On to `C=Cc1sc2cncn2c1[C@@H](O)C1CCCCC1` [Example 68a, (S)-Cyclohexyl-(2-vinyl-imidazo[5,1-b]thiazol-3-yl)-methanol], for which the results for the IC50 in assay [1] and in assay [2] were 4.63 nM and 11.6 nM, respectively.
The corresponding values for `CC1(C)CCCC(C(O)c2c(C3CC3)sc3cncn23)C1` (stereo not drawn) [Example 69, (2-Cyclopropyl-imidazo[5,1-b]thiazol-3-yl)-(3,3-dimethyl-cyclohexyl)-methanol] are 40 nM and 255 nM.
For `O[C@H](c1c(C2CC2)sc2cncn12)[C@H]1CC[C@H](c2ccccc2)CC1` [Example 73a, (S)-(2-Cyclopropyl-imidazo[5,1-b]thiazol-3-yl)-(trans-4-phenyl-cyclohexyl)-methanol], the concentration for half-maximal inhibition (IC50) in assay [1] turned out to be 6.45 nM; in assay [2] it was 2300 nM.
As to `OC(CC1CCCCC1c1ccccc1)c1c(C2CC2)sc2cncn12` (stereo not drawn) [Example 75, 1-(2-Cyclopropyl-imidazo[5,1-b]thiazol-3-yl)-2-(2-phenyl-cyclohexyl)-ethanol], the half-inhibitory concentration (IC50) in assay [1] is 1040 nM; in assay [2] it was 9460 nM.
For `CC1(C)CCCCC1CC(O)c1c(C2CC2)sc2cncn12` (stereo not drawn) [Example 76, 1-(2-Cycclopropyl-imidazo[5,1-b]thiazol-3-yl)-2-(2,2-dimethyl-cyclohexyl)-ethanol], the IC50 came to 147 nM in assay [1] and 295 nM in assay [2].
In the same order, the values of `OC(c1c(C2CC2)sc2cncn12)C1CCC(Cc2ccccc2)C1` (stereo not drawn) [Example 77, (3-Benzyl-cyclopentyl)-(2-cyclopropyl-imidazo[5,1-b]thiazol-3-yl)-methanol] are 91.2 nM and 3900 nM.
For `CC(C)CC1CCC(C(O)c2c(C3CC3)sc3cncn23)C1` (stereo not drawn) [Example 78, (2-Cyclopropyl-imidazo[5,1-b]thiazol-3-yl)-(3-isobutyl-cyclopentyl)-methanol], the concentration for half-maximal inhibition (IC50) in assay [1] is 72.3 nM; in assay [2] it was 2010 nM.
`COC1CCCC(C(O)c2c(C3CC3)sc3cncn23)C1` (stereo not drawn) [Example 79, (2-Cyclopropyl-imidazo[5,1-b]thiazol-3-yl)-(3-methoxy-cyclohexyl)-methanol]: the figures for the IC50 in assay [1] and in assay [2] were 109 nM and 1850 nM, respectively.
In the same order, the values of `OC(c1c(C2CC2)sc2cncn12)C1CCc2ccccc2C1` (stereo not drawn) [Example 80, (2-Cyclopropyl-imidazo[5,1-b]thiazol-3-yl)-(1,2,3,4-tetrahydro-naphthalen-2-yl)-methanol] are 34.2 nM and 1810 nM.
In the same order, the values of `CC(C1CCCCC1)C(O)c1c(C2CC2)sc2cncn12` (stereo not drawn) [Example 82, 2-Cyclohexyl-1-(2-cyclopropyl-imidazo[5,1-b]thiazol-3-yl)-propan-1-ol] are 87.3 nM and 822 nM.
The corresponding values for `OC(c1c(C2CC2)sc2cncn12)C1CCCC1c1ccccc1` (stereo not drawn) [Example 83, (2-Cyclopropyl-imidazo[5,1-b]thiazol-3-yl)-(2-phenyl-cyclopentyl)-methanol] are 296 nM and 5200 nM.
Regarding `CC1(C)CCCC1C(O)c1c(C2CC2)sc2cncn12` (stereo not drawn) [Example 84, (2-Cyclopropyl-imidazo[5,1-b]thiazol-3-yl)-(2,2-dimethyl-cyclopentyl)-methanol], the values for the concentration for half-maximal inhibition (IC50) in assay [1] and in assay [2] were 74 nM and 133 nM, respectively.
The corresponding values for `CC1(c2ccccc2)CCC(C(O)c2c(C3CC3)sc3cncn23)C1` (stereo not drawn) [Example 88, (2-Cyclopropyl-imidazo[5,1-b]thiazol-3-yl)-(3-methyl-3-phenyl-cyclopentyl)-methanol] are 76.7 nM and 1280 nM.
On to `OC(CC1CCCC2CCCCC21)c1c(C2CC2)sc2cncn12` (stereo not drawn) [Example 89, 1-(2-Cyclopropyl-imidazo[5,1-b]thiazol-3-yl)-2-(decahydro-naphthalen-1-yl)-ethanol], for which the half-inhibitory concentration (IC50) turned out to be 528 nM in assay [1] and 2130 nM in assay [2].
The corresponding values for `OC(c1c(C2CC2)sc2cncn12)C1CCC2CCCCC2C1` (stereo not drawn) [Example 90, (2-Cyclopropyl-imidazo[5,1-b]thiazol-3-yl)-(decahydro-naphthalen-2-yl)-methanol] are 133 nM and 1080 nM.
In the same order, the values of `OC(c1c(C2CC2)sc2cncn12)C1CCCC1Cc1ccccc1` (stereo not drawn) [Example 91, (2-Benzyl-cyclopentyl)-(2-cyclopropyl-imidazo[5,1-b]thiazol-3-yl)-methanol] are 288 nM and 1640 nM.
On to `O[C@H](c1c(-c2ccccc2)sc2cncn12)C1CCCCC1` [Example 92a, (S)-Cyclohexyl-(2-phenyl-imidazo[5,1-b]thiazol-3-yl)-methanol], for which the IC50 in assay [1] is 242 nM; in assay [2] it was 171 nM.

For orientation: IC50 means the concentration that gives 50% inhibition.
